# Measured values reported in patent US8883782B2, “Spiro-tetracyclic ring compounds as beta-secretase modulators and methods of use” (Amgen Inc., priority 2010, dated 2014).
# Key:
# [1] = test system: Aβ40 in conditioned medium of cells stably expressing Amyloid Precursor Protein (APP); test: In vitro BACE cell-based assay (Aβ40 in conditioned medium, sandwich ELISA); conditions: Homo sapiens, HEK293, average IC50; read-out: HEK cell assay
# In short: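 Conditioned medium from stably APP-expressing cells treated with compound dose series is assayed for Aβ40 by sandwich ELISA with time-resolved fluorescence detection. IC50 is calculated from percent inhibition of Aβ40 against compound concentration.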
# [2] = biological target: Beta Secretase enzyme (BACE) (Homo sapiens, UniProt P56817); test: In vitro enzymatic BACE FRET (fluorescence resonance energy transfer) assay; format: biochemical; conditions: average IC50, enzyme assay; read-out: BACE 1 FRET assay
# Chain of Beta Secretase enzyme (BACE) (P56817 46-501, species assumed): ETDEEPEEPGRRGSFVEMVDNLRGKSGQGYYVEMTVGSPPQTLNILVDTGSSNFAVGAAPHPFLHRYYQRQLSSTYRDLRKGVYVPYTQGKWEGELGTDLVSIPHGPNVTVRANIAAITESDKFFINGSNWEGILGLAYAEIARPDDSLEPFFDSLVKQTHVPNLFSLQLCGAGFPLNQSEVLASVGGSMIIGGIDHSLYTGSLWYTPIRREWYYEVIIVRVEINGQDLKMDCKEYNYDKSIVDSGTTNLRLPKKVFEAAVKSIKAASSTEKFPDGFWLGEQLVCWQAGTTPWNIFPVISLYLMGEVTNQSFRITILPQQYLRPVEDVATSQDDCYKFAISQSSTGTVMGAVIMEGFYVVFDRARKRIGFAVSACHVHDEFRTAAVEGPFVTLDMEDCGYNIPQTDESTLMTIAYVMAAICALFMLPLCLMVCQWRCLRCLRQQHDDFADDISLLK
# In short: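 Enzyme activity was measured at pH 4.2 (0.05 M acetate, 10% DMSO final, 100 uM genapol) by cleavage of a 50 nM quenched fluorogenic peptide. After one hour, Tris was added to neutralise the pH and fluorescence was recorded.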
Compound,IC50 [1] [nM],IC50 [2] [nM]
"N#Cc1cccc(-c2ccc3c(c2)C2(COC(N)=N2)c2cc(C4CCOCC4)nc(F)c2O3)c1 (centres unmarked) [Example 751, 3-(2′-amino-1-fluoro-3-(tetrahydro-2H-pyran-4-yl)spiro[chromeno[2,3-c]pyridine-5,4′-[1,3]oxazol]-7-yl)benzonitrile]",42,3.2
"NC1=NC2(CO1)c1cc(-c3cccnc3)ccc1Oc1c2cc(C2CCOCC2)nc1F (centres unmarked) [Example 752, 1-fluoro-7-(3-pyridinyl)-3-(tetrahydro-2H-pyran-4-yl)spiro[chromeno[2,3-c]pyridine-5,4′-[1,3]oxazol]-2′-amine]",77,5.6
"CC#Cc1cncc(-c2ccc3c(c2)[C@@]2(COC(N)=N2)c2cc(C4CCOCC4)nc(F)c2O3)c1 [Example 753, (5S)-1-fluoro-7-(5-(1-propyn-1-yl)-3-pyridinyl)-3-(tetrahydro-2H-pyran-4-yl)spiro[chromeno[2,3-c]pyridine-5,4′-[1,3]oxazol]-2′-amine]",4,0.7
"CC#Cc1cncc(-c2ccc3c(c2)[C@]2(COC(N)=N2)c2cc(C4CCOCC4)nc(F)c2O3)c1 [Example 754, (5R)-1-fluoro-7-(5-(1-propyn-1-yl)-3-pyridinyl)-3-(tetrahydro-2H-pyran-4-yl)spiro[chromeno[2,3-c]pyridine-5,4′-[1,3]oxazol]-2′-amine]",691,156
"CC#Cc1cncc(-c2ccc3c(c2)[C@@]2(COC(N)=N2)c2cc(C4=CCCOC4)nc(F)c2O3)c1 [Example 758, (5S)-3-(5,6-dihydro-2H-pyran-3-yl)-1-fluoro-7-(5-(1-propyn-1-yl)-3-pyridinyl)spiro[chromeno[2,3-c]pyridine-5,4′-[1,3]oxazol]-2′-amine]",2,0.4
"CC#Cc1cncc(-c2ccc3c(c2)[C@@]2(COC(N)=N2)c2cc(C4=CCOCC4)nc(F)c2O3)c1 [Example 760, (5S)-3-(3,6-dihydro-2H-pyran-4-yl)-1-fluoro-7-(5-(1-propyn-1-yl)-3-pyridinyl)spiro[chromeno[2,3-c]pyridine-5,4′-[1,3]oxazol]-2′-amine]",2,0.3
"CC#Cc1cncc(-c2ccc3c(c2)[C@@]2(COC(N)=N2)c2cc(Cl)nc(F)c2O3)c1 [Example 761, (5S)-3-chloro-1-fluoro-7-(5-(1-propyn-1-yl)-3-pyridinyl)spiro[chromeno[2,3-c]pyridine-5,4′-[1,3]oxazol]-2′-amine]",185,0.9
"N#Cc1cccc(-c2ccc3c(c2)[C@@]2(CSC(N)=N2)c2cc(C4=CCOCC4)cnc2O3)c1F [Example 763, 3-((5S)-2′-amino-3-(3,6-dihydro-2H-pyran-4-yl)spiro[chromeno[2,3-b]pyridine-5,4′-[1,3]thiazol]-7-yl)-2-fluorobenzonitrile]",17,2.1
"N#Cc1cc(-c2ccc3c(c2)[C@@]2(CSC(N)=N2)c2cc(C4=CCOCC4)cnc2O3)ccc1F [Example 764, 5-((5S)-2′-amino-3-(3,6-dihydro-2H-pyran-4-yl)spiro[chromeno[2,3-b]pyridine-5,4′-[1,3]thiazol]-7-yl)-2-fluorobenzonitrile]",6,0.6
"NC1=N[C@@]2(CS1)c1cc(-c3cccnc3F)ccc1Oc1ncc(-c3cccnc3)cc12 [Example 765, (5S)-7-(2-fluoro-3-pyridinyl)-3-(3-pyridinyl)spiro[chromeno[2,3-b]pyridine-5,4′-[1,3]thiazol]-2′-amine]",8,1
"Cc1ccc(-c2cnc3c(c2)[C@]2(CSC(N)=N2)c2cc(-c4cnccc4F)ccc2O3)cn1 [Example 766, (5S)-7-(4-fluoro-3-pyridinyl)-3-(6-methyl-3-pyridinyl)spiro[chromeno[2,3-b]pyridine-5,4′-[1,3]thiazol]-2′-amine]",10,1.2
"NC1=N[C@@]2(CS1)c1cc(-c3cccnc3F)ccc1Oc1ncc(-c3ccnc(F)c3)cc12 [Example 767, (5S)-7-(2-fluoro-3-pyridinyl)-3-(2-fluoro-4-pyridinyl)spiro[chromeno[2,3-b]pyridine-5,4′-[1,3]thiazol]-2′-amine]",23,1
"NC1=N[C@@]2(CS1)c1cc(-c3cnccc3F)ccc1Oc1ncc(C3=CCOCC3)cc12 [Example 768, (5S)-3-(3,6-dihydro-2H-pyran-4-yl)-7-(4-fluoro-3-pyridinyl)spiro[chromeno[2,3-b]pyridine-5,4′-[1,3]thiazol]-2′-amine]",16,1.2
"NC1=N[C@@]2(CS1)c1cc(-c3cnccc3F)ccc1Oc1ncc(-c3cccnc3)cc12 [Example 769, (5S)-7-(4-fluoro-3-pyridinyl)-3-(3-pyridinyl)spiro[chromeno[2,3-b]pyridine-5,4′-[1,3]thiazol]-2′-amine]",44,2.3
"NC1=N[C@@]2(CS1)c1cc(-c3cncc(F)c3)ccc1Oc1ncc(C3=CCCOC3)cc12 [Example 770, (5S)-3-(5,6-dihydro-2H-pyran-3-yl)-7-(5-fluoro-3-pyridinyl)spiro[chromeno[2,3-b]pyridine-5,4′-[1,3]thiazol]-2′-amine]",10,0.6
"NC1=N[C@@]2(CS1)c1cc(-c3cncc(F)c3)ccc1Oc1ncc(-c3ncccn3)cc12 [Example 771, (5S)-7-(5-fluoro-3-pyridinyl)-3-(2-pyrimidinyl)spiro[chromeno[2,3-b]pyridine-5,4′-[1,3]thiazol]-2′-amine]",96,4.6
"CC#Cc1cncc(-c2ccc3c(c2)[C@@]2(CSC(N)=N2)c2cc(C4=CCOCC4)cnc2O3)c1 [Example 772, (5S)-3-(3,6-dihydro-2H-pyran-4-yl)-7-(5-(1-propyn-1-yl)-3-pyridinyl)spiro[chromeno[2,3-b]pyridine-5,4′-[1,3]thiazol]-2′-amine]",2,0.5
"NC1=N[C@@]2(CS1)c1cc(-c3cnccc3F)ccc1Oc1ncc(C3=CCCOC3)cc12 [Example 773, (5S)-3-(5,6-dihydro-2H-pyran-3-yl)-7-(4-fluoro-3-pyridinyl)spiro[chromeno[2,3-b]pyridine-5,4′-[1,3]thiazol]-2′-amine]",14,0.8
"CC1(C)CC(c2cnc3c(c2)[C@]2(CSC(N)=N2)c2cc(-c4cccnc4F)ccc2O3)=CCO1 [Example 774, (5S)-3-(2,2-dimethyl-3,6-dihydro-2H-pyran-4-yl)-7-(2-fluoro-3-pyridinyl)spiro[chromeno[2,3-b]pyridine-5,4′-[1,3]thiazol]-2′-amine]",17,0.6
"CC#Cc1cncc(-c2cnc3c(c2)[C@]2(COC(N)=N2)c2cc(OC)ccc2O3)c1 [Example 775, (5S)-7-methoxy-3-(5-(1-propyn-1-yl)-3-pyridinyl)spiro[chromeno[2,3-b]pyridine-5,4′-[1,3]oxazol]-2′-amine]",≥ 10000,4830
"CC#Cc1cncc(-c2cc(F)c3c(c2)[C@]2(COC(N)=N2)c2cc(OC)ccc2O3)c1 [Example 776, (4S)-4′-fluoro-7′-methoxy-2′-(5-(1-propyn-1-yl)-3-pyridinyl)spiro[1,3-oxazole-4,9′-xanthen]-2-amine]",≥ 10000,2380
"CC#Cc1cncc(-c2cnc3c(c2)[C@]2(COC(N)=N2)c2cc(-c4cccnc4F)ccc2O3)c1 [Example 777, (5S)-7-(2-fluoro-3-pyridinyl)-3-(5-(1-propyn-1-yl)-3-pyridinyl)spiro[chromeno[2,3-b]pyridine-5,4′-[1,3]oxazol]-2′-amine]",3510,106
"N#Cc1cccc(-c2ccc3c(c2)[C@@]2(CSC(N)=N2)c2cc(C4=CCCOC4)cnc2O3)c1F [Example 778, 3-((5S)-2′-amino-3-(5,6-dihydro-2H-pyran-3-yl)spiro[chromeno[2,3-b]pyridine-5,4′-[1,3]thiazol]-7-yl)-2-fluorobenzonitrile]",54,2.8
"CC1(C)C=C(c2cnc3c(c2)[C@]2(CSC(N)=N2)c2cc(-c4cccc(C#N)c4F)ccc2O3)CCO1 [Example 779, 3-((5S)-2′-amino-3-(6,6-dimethyl-3,6-dihydro-2H-pyran-4-yl)spiro[chromeno[2,3-b]pyridine-5,4′-[1,3]thiazol]-7-yl)-2-fluorobenzonitrile]",319,4.8
"CC1(C#Cc2cnc3c(c2)[C@]2(CSC(N)=N2)c2cc(-c4cccc(C#N)c4F)ccc2O3)COC1 [Example 780, 3-((5S)-2′-amino-3-((3-methyl-3-oxetanyl)ethynyl)spiro[chromeno[2,3-b]pyridine-5,4′-[1,3]thiazol]-7-yl)-2-fluorobenzonitrile]",338,2
"CC#Cc1cncc(-c2ccc3c(c2)[C@@]2(CSC(N)=N2)c2cc(-c4ccnc(F)c4)cnc2O3)c1 [Example 781, (5S)-3-(2-fluoro-4-pyridinyl)-7-(5-(1-propyn-1-yl)-3-pyridinyl)spiro[chromeno[2,3-b]pyridine-5,4′-[1,3]thiazol]-2′-amine]",3,0.3
"CC#Cc1cncc(-c2ccc3c(c2)[C@@]2(CSC(N)=N2)c2cc(C#CC4(C)COC4)cnc2O3)c1 [Example 782, (5S)-3-((3-methyl-3-oxetanyl)ethynyl)-7-(5-(1-propyn-1-yl)-3-pyridinyl)spiro[chromeno[2,3-b]pyridine-5,4′-[1,3]thiazol]-2′-amine]",4,0.9
"N#Cc1cc(-c2ccc3c(c2)[C@@]2(CSC(N)=N2)c2cc(C4=CCCOC4)cnc2O3)ccc1F [Example 783, 5-((5S)-2′-amino-3-(5,6-dihydro-2H-pyran-3-yl)spiro[chromeno[2,3-b]pyridine-5,4′-[1,3]thiazol]-7-yl)-2-fluorobenzonitrile]",10,0.6
